Results on eight compounds are retold here after patent US20130171273A1, “METHOD OF TREATING IMPAIRED WOUND HEALING IN DIABETICS” (KUWAIT UNIVERSITY, priority 2011, published 2013).

Where “and” joins values, the source holds several entries; their conditions need not be identical. Equal values may be shown once. Read-outs that look alike come from different tables or passages of the source.

One series relates to CFs and DFs. Put plainly: Lipid peroxidation (DPPP fluorescence) in control and diabetic fibroblasts. The series is classed as cell-based, rat. The note with it: stressed CFs and DFs; markedly higher in diabetic than in control cells, FIG. 1E. The method, then:
To measure lipid peroxidation and plasma membrane redox system (PMRS) enzymes, a total of 10-20 μg of purified plasma membrane protein in a butler containing 50 mM Tris at pH 7.6, 0.2 mM NADH, and 0.1% Triton X-100 was analyzed in the spectrophotometric determination (340 nm) of the activities of NADH CoQ and NADH-ascorbate free radical reductase [also known cytochrome b5 reductase, following the respective additions of coenzyme Q (0.2 mM) and fresh ascorbate (0.4 mM). NQO1 activity was measured at 550 nm in solution buffer containing 5 mM. Tris-HCl at pH 7.6, 0.2 mM NADPH, 0.1% Triton X-100, 10 μM menadione and 75 μM cytochrome c with or without dicoumarol. Calculation of the activity of NQO1 was based on the difference between the uninhibited and the dicoumarol-inhibited samples. Cells were assessed for lipid peroxidation using the diphenyl-1-pyrenylphosphine (DPPP, Invitrogen) fluorescence-based assay. […] The plate was read for DPPP fluorescence (excitation at 340 nm and emission at 405 nm) in a 96-well fluorescence plate reader. […]
To monitor whether the diabetes-induced elevation in intracellular levels of ROS may reflect an increase in lipid peroxidation, a marker of accumulative oxidative stress (OS), the lipid peroxide formation of CFs and DFs at baseline and under stressed conditions was measured using the dye DPPP, which intercalates and reacts with lipid hydroperoxides.

For series [1], the system named is control fibroblasts (CFs). The experiment in a line: Caspase-3-like activity (Apo-ONE caspase-3/7 assay), control fibroblasts. The series is classed as cell-based, rat. The method, then: (§1) To quantify relative cell death in control and diabetic fibroblasts, cells were seeded at 1×10^4 cells/well on a 96-well plate. After a 24 h incubation period, the cells were exposed to various concentrations of HP in serum-free medium at 37° C. for 2 h [lactate dehydrogenase (LDH), a marker for necrotic cell death] or for 16 h (cell viability and apoptosis assay). Quantification of cell viability and caspase-3-like activity was achieved using a Cell Counting Kit-8 (Dojindo, Kumamoto, Japan) and an Apo-ONE homogenous caspase-3/7 assay (Promega), respectively. The values obtained were normalized to the vehicle-treated cells. To measure the rate of necrotic cell death, a LDH release assay was performed using a CytoTox-ONE Homogeneous Membrane Integrity Assay kit (Promega). In some experiments, cells were pre-incubated for 1 h with 2 μg of the ATPase inhibitor oligomycin before exposure to HP.

Series [2] deals with control fibroblasts (CFs). To be noted: rat, 16 h. The method, then:
as §1

In series [3] the test system is diabetic fibroblasts (DFs). To be noted: for loss in cell viability: rat, 16 h. The method, then: as §1
A further series deals with NADPH oxidase. The experiment in a line: NADPH-dependent superoxide generation in membrane fractions (lucigenin chemiluminescence / SOD-inhibitable cytochrome c reduction). Format: biochemical, rat. To be noted: membrane fractions of diabetic fibroblasts. Here is the method:
To study NADPH oxidase activity, cell pellets collected by trypsinization and suspended in 20 mM MOPS-KOH buffer, pH 7.4 containing 250 mM, 0.1 mM EDTA and a cocktail of protease inhibitors. The cells were disrupted by sonication on ice and the cell lysates were fractionated by centrifugation twice at 29,000×g for 15 min, discarding the supernatant each time. The pellet was resuspended in sucrose buffer and assayed for NADPH oxidase activity using lucigenin chemiluminescence or cytochrome c reduction-based assay. Briefly, membrane fractions (˜10 μg protein) were diluted in sucrose buffer/protease inhibitors and then lucigenin was added ((5 μM) in the presence or absence of 100 μM NADPH. The chemiluminescence was measured in 30 sec intervals over 5 min. The specificity of superoxide measured was confirmed by adding peg-SOD (10 units/ml). For the assessment of SOD-inhibitable cytochrome reduction, ˜100 μg membrane protein was added to a buffer containing cytochrome c (50 μM), NADPH (100 μM) and in the presence or absence of peg-SOD. After one hr, activity was measured as the SOD-inhibitable increase in absorbance at 550 nm (EmM=21). Assay conditions were established confirming the linearity of superoxide production with time and protein concentrations.
Following the procedures above, it was determined that superoxide generation over a 30-minute period was 55% higher in DFs relative to corresponding control values (FIG. 1A). This radical is a by-product of mitochondrial respiration and enzymatic oxidases. Accordingly, it was examined whether the observed elevation in superoxide stemmed from enhanced activity of the non-phagocytic NAD(P)H oxidase.

Series [4] deals with Nrf2. Put plainly: Nuclear accumulation of Nrf2 in diabetic fibroblasts (subcellular fractionation, Western blot). Format: cell-based, rat. To be noted: for nuclear accumulation of Nrf2: DFs, OS-inducing agent, compared with CFs, FIG. 3D. The method, then:
To quantify responses to oxidative stress activators, fibroblasts of control and of type 2 diabetes were treated with vehicle or the OS-inducing agents ‘t-butylhydroquinone (tBHQ, 100 μM, Sigma) or oligomycin (15 μM, Sigma) for 16 h. The Cells were processed for total RNA extraction or western blotting analysis as outlined below. Both of these compounds were dissolved in ethanol with a final concentration of 0.01%. […] To analyze protein expression and phosphorylation, cells were seeded in 6-well plates and treated as described above. They were washed with ice-cold PBS, scraped into PBS, and centrifuged at 1000 rpm for 5 min. The cell pellet was then subjected to subcellular fractionation. To make the total cell lysate, the cells were lysed with RIPA buffer supplemented with a protease inhibitor mixture and a phosphatase inhibitor mixture. The protein concentration was determined using BCA protein assay reagents (Pierce). Fifty micrograms of total cell lysate (or cytosolic, or nuclear) fractions were resolved on a 10% SDS-polyacrylamide gel, Western blotted, and probed with antibodies specific for Nrf2, Kcap1 or Fyn (all from Santa Cruz) or GSK-3β, GSK-3β-phosho-Ser9 (P-GSK3-β, and phosphor GSK-α/-β (pTyr279/pTyr216) (Cell Signaling). The purity of the subcellular fractions was confirmed using the anti-LDH antibody (Chemieon International) and the anti-PCNA antibody (Santa Cruz) for cytosolic and nuclear fractions, respectively. The levels of protein on a Western blot were assessed using Quantity One Image software (Bio-Rad) and normalized against suitable loading controls, including anti-β-actin antibody for total and cytosolic fractions and anti-PCNA antibody for the nuclear fraction.
On the technique in general: In western blotting, separated proteins are transferred to a membrane and probed.

Series [5] relates to diabetic fibroblasts (DFs). Put plainly: Superoxide generation in diabetic fibroblasts (dihydroethidium fluorescence). Format: cell-based, rat. The note with it: superoxide generation over a 30-minute period, FIG. 1A. Here is the method: Primary rat fibroblasts were derived from dorsal skin biopsies performed on four diabetic Goto Kakizaki rats (DFs) and four age (12-14 months) and sex (female) matched Wistar control rats (CFs). After sterilization in povidine solution, the rat skin was washed in sterile water and rinsed in 70% ethanol in phosphate buffered saline (PBS). The epidermis and dermis were separated following overnight incubation in 0.25% Trypsin/EDTA at 4° C. Samples were washed, diced and digested for thirty min at 37° C. in collagenase type I (250 U/ml) dissolved in Dulbecco's modified Eagle medium (DMEM; Invitrogen) containing penicillin (100 U/ml), streptomycin (100 μg/ml), 2 mM L-glutamine and 26 mM HEPES. After collagenase treatment, the cells were dislodged, centrifuged and resuspended in medium supplemented with 10% fetal bovine serum. […]
To characterize oxidative conditions of cutaneous tissue, cells in 96-well plates were washed with Krebs Ringer buffer and then incubated at 37° C. in the presence of 10 μM of dihydroethidium (DHE, Molecular Probes). Fluorescence readings were taken at Ex 530 nm and Em=595 nm over a 30 min period. The determination of GSH (reduced glutathione) was achieved using the fluorescence probe monochlorobimane (MCB, Molecular Probes). Cells were incubated with 100 μl of […] MCB for 20 min at 37° C., and the fluorescence intensity was measured at Ex=390 nm and Em=460 nm. […]

The subject of series [6] is Nrf2. The experiment in a line: Nuclear accumulation of Nrf2 in control fibroblasts (subcellular fractionation, Western blot). The series is classed as cell-based, rat. The note with it: CFs, OS-inducing agent, FIG. 3D. The method, then:
(§2) To quantify responses to oxidative stress activators, fibroblasts of control and of type 2 diabetes were treated with vehicle or the OS-inducing agents ‘t-butylhydroquinone (tBHQ, 100 μM, Sigma) or oligomycin (15 μM, Sigma) for 16 h. The Cells were processed for total RNA extraction or western blotting analysis as outlined below. Both of these compounds were dissolved in ethanol with a final concentration of 0.01%. […] To analyze protein expression and phosphorylation, cells were seeded in 6-well plates and treated as described above. They were washed with ice-cold PBS, scraped into PBS, and centrifuged at 1000 rpm for 5 min. The cell pellet was then subjected to subcellular fractionation. To make the total cell lysate, the cells were lysed with RIPA buffer supplemented with a protease inhibitor mixture and a phosphatase inhibitor mixture. The protein concentration was determined using BCA protein assay reagents (Pierce). […]

Series [7] deals with control fibroblasts (CFs). The experiment in a line: mRNA of Nrf2-regulated genes by real-time PCR in control fibroblasts. Format: cell-based, rat. The method, then: (§3) To quantify responses to oxidative stress activators, fibroblasts of control and of type 2 diabetes were treated with vehicle or the OS-inducing agents ‘t-butylhydroquinone (tBHQ, 100 μM, Sigma) or oligomycin (15 μM, Sigma) for 16 h. The Cells were processed for total RNA extraction or western blotting analysis as outlined below. Both of these compounds were dissolved in ethanol with a final concentration of 0.01%. […] To measure transcription of Nrf2 target genes and NADPH oxidase genes, RNA (1 μg) was isolated from cultured fibroblasts using Trizol reagent (Invitrogen) and reverse transcribed for 1 h at 37° C. using the High Capacity cDNA Reverse Transcription Kit. Real-time quantitative RT-PCR was performed with the TaqMan Gene Expression Assay and was normalized against 18S RNA using an ABI 7900 Real-time PCR System (Applied Biosystems). Primers and probes were designed by and purchased from Applied Biosystems. Primer efficiency and specificity were verified by amplifying standard dilutions of a probe obtained by pooling all the samples and by melting curve analysis, respectively.
In general terms: Quantitative PCR measures a nucleic acid by following its amplification.

Series [8] concerns Nrf2. The experiment in a line: Nrf2 level in total cell lysates (Western blot). The series is classed as cell-based, rat. To be noted: control and diabetic fibroblasts, to about the same extent, FIG. 3A. Here is the method: as §2
Series [9] has as its system diabetic fibroblasts (DFs). The experiment in a line: mRNA of Nrf2-regulated genes by real-time PCR in diabetic fibroblasts. The series is classed as cell-based, rat. The note with it: tBHQ treatment. Here is the method:
as §3

[10] abbreviates: CFs / normal fibroblasts, tBHQ treatment.

For `OO` [HP, hydrogen peroxide], in the series on CFs and DFs, the “lipid peroxidation (DPPP fluorescence)” value is “enhancement in lipid peroxidation”. In addition, the “fold increase in caspase-3-like activity” value is on record as 8.2 fold in [1] (controls (CFs), 50 μM HP) and 5.4 fold in series [3] (50 μM HP). Moreover, the “loss in cell viability” value in [2] (37.5 μM) came to 6%; in [2] (50 μM), 22%; in series [2] (75 μM), 53%; in series [3] (37.5 μM) it was 17%; in [3] (50 μM), 55%; in series [3] (75 μM), 78%.
In the case of `COC(=O)[C@@H](N)CCCNC(=N)N[N+](=O)[O-]` [L-NAME], the “effect on superoxide production” value in the series on NADPH oxidase is “did not have a significant effect”.
Regarding `Cn1sc(=O)n(Cc2ccccc2)c1=O` [TDZD-8, 4-benzyl-2-methyl-1,2,4-thiadiazolidine-3,5-dione], the “basal and inducible levels of nuclear Nrf2” value in the series on Nrf2 [4] (DFs pretreated 8 h with lithium chloride 50 mM or TDZD-8 50 μM, FIG. 4B only shown for lithium) was “partially normalized”.
For the compound `c1ccc(Cn2nnc3c(Sc4nc5ccccc5o4)ncnc32)cc1` [VAS2870], the “reduction of NADPH-dependent superoxide production (activity)” value with NADPH oxidase (FIG. 1B) is recorded as “about 87%”. In addition, the “reduction of the diabetes-related increase in superoxide” value in series [5] is “about 31%”.
As to `Oc1ncnc2[nH]ncc12` [allopurinol], the “effect on superoxide production” value with NADPH oxidase is listed as “did not have a significant effect”.
Turning to `CC[C@H]1/C=C/C=C/C[C@@H](C)[C@H](O)[C@@](C)(O)C(=O)[C@@H](C)[C@H](O)[C@@H](C)C(=O)[C@@H](C)[C@H](O)[C@@H](C)/C=C/C(=O)O[C@@H]2[C@H](C)[C@H](CC1)O[C@]1(CC[C@H](C)[C@H](C[C@@H](C)O)O1)[C@H]2C` [oligomycin], the “ability of HP to enhance caspase-3-like activities” value in series [1] (CFs pre-treated with a 2-μg dose of oligomycin) is “suppresses”. Further, in the series with Nrf2 [6], the “Nrf2 in the nuclei-enriched fraction” value is on record as “markedly elevated”. In addition, in the series on Nrf2 [4], the “nuclear accumulation of Nrf2” value is reported as “far smaller increase”. Also, the “expression of Mn-SOD, catalase, GSTP1, GCLC and NQO1 mRNA” value in series [7] (CFs, oligomycin treatment, FIG. 3F) was “increase in the expression of Mn-SOD, catalase, GSTP1 and GCLC but not of NQO1”.
Consider `CC(C)(C)OO` [t-BHP], for which, in the series on CFs and DFs, the “lipid peroxidation (DPPP fluorescence)” value was “enhancement in lipid peroxidation”.
Regarding `CC(C)(C)c1cc(O)ccc1O` [tBHQ, tert-butylhydroquinone], the “level of Nrf2 in total cell lysates” value in the series with Nrf2 [8] is “elevates”. Besides, the “Nrf2 in the nuclei-enriched fraction” value in the series with Nrf2 [6] is on record as “markedly elevated”. Further, in the series on Nrf2 [4], the “nuclear accumulation of Nrf2” value is listed as “far smaller increase”. In addition, in series [7] (setting [10]), the “increase of GCLC mRNA expression” value was 5-7 fold and 5.7 fold; the “increase of GSTP1 mRNA expression” value was 5-7 fold and 6.3 fold; the “increase of NQO1 mRNA expression” value was 4-6 fold and 4.8 fold; the “increase of catalase mRNA expression” value is 7-10 fold and 8.8 fold. In [7] (normal fibroblasts, tBHQ treatment), the “increase of GR mRNA expression” value is given as 3-4 fold. Besides, the “levels of Cu/Zn SOD or Mn-SOD (SOD2) mRNA” value in series [7] (tBHQ treatment, cell type not given) is given as “no observable changes”. Moreover, in [9] (DFs, FIG. 3E), the “percent increase of Nrf2-dependent transcripts (catalase, GSTP1, GCLC, NQO1)” value was 32%-78%. For the same compound, the “upregulation of anti-oxidative enzymes” value in series [9] (cells with overabundant oxidative stress and impaired Nrf2 response) lay within 1.5 to 2 fold.
